Earlier results on eight compounds are cited in patent US12268699B2, “Transdermal delivery of tetrahydrocannabinol” (Pike Therapeutics Inc., priority 2019, dated 2025).

One series relates to CB2 receptor over CB1. To be noted: given as ×, -fold or times.
Series [1] has as its system complete Freund's adjuvant-induced monoarthritic knee join mode. The settings on record: transdermal.
The target of the next series is CB2 (Homo sapiens, UniProt P34972).
The target of a further series is CB1 (Homo sapiens, UniProt P21554).
For series [2] the following is noted: in 96 hrs. with 6% Brij O20.

Structures are written as SMILES. Where two headings read alike, the source gives them in different places.

CB2, sequence (P34972 whole entry, species assumed): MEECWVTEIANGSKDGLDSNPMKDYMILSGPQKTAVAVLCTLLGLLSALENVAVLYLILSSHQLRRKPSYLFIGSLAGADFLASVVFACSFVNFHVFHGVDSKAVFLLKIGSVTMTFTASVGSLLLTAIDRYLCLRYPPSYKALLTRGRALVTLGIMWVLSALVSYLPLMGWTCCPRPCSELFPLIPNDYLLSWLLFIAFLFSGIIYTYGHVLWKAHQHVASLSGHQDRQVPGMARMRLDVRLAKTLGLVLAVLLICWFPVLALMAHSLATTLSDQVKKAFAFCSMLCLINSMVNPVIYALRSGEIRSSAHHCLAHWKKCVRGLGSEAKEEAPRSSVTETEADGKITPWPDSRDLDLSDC
CB1, sequence (P21554 whole entry, species assumed): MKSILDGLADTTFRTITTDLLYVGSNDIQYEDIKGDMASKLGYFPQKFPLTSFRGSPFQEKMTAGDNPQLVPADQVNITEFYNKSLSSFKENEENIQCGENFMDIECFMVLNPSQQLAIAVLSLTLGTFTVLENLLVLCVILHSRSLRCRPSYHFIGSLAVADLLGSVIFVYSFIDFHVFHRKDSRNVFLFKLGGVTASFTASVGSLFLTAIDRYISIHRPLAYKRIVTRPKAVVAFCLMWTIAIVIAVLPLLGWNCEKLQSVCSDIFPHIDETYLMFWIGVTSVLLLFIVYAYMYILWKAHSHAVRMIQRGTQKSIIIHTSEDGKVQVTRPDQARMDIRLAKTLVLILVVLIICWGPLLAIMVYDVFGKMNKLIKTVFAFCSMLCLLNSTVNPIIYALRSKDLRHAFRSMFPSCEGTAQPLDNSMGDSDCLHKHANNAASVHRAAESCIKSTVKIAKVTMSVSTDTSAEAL

As for `CCCCCCC(C)(C)c1cc(O)c2c(c1)oc(=O)c1ccc(OC)cc12` [AM-1710], the “selectivity for CB2 over CB1” value with CB2 receptor over CB1 is 54.
Consider `C=C(C)[C@@H]1CCC(C)=C[C@H]1c1c(O)cc(CCCCC)cc1O` [CBD, 2-[(1R,6R)-6-isopropenyl-3-methylcyclohex-2-en-1-yl]-5-pentylbenzene-1,3-diol], for which the knee-joint swelling entry in series [1] (dose of 6.2 mg/day) is “reduce knee-joint swelling”; in series [1] (dose of 62 mg/day) it was “failed to yield any additional improvement”.
For the compound `CCCn1cc(C(=O)c2ccc(C)c3ccccc23)c2ccccc21` [JWH-120], the “selectivity for CB2 over CB1” value in the series on CB2 receptor over CB1 was 173.
With `CCCn1c(C)c(C(=O)c2ccc(C)c3ccccc23)c2ccccc21` [JWH-148], in the series on CB2 receptor over CB1, the “selectivity for CB2 over CB1” value is “more than 8”.
`CCCCCCC(C)(C)c1cc(OC)c2c(c1)OC(C)(C)C1CCC(O)CC21` (stereo not drawn) [JWH-350, 11-nor-1-methoxy-3-(1′,1′-dimethylheptyl)-9α-hydroxyhexahydrocannabinol]: the “selectivity for CB2 over CB1” value in the series with CB2 receptor over CB1 is 33.
In the case of `CCCCCn1cc(C(=O)c2ccc(Cl)c3ccccc23)c2ccccc21` [JWH-398], the inhibition constant (Ki) at CB2 was 2.8 nM; at CB1 it was 2.3 nM.
On to `CCCCCn1cc(C(=O)c2cccc3cccc(Br)c23)c2ccccc21` [JWH-424], for which the results for the Ki at CB2 and at CB1 were 5.44 nM and 20.9 nM, respectively.
For the compound `CCCCCc1cc(O)c2c(c1)OC(C)(C)[C@@H]1CCC(C)=C[C@@H]21` [naturally derived delta-9-THC, (−)-(6aR,10aR)-6,6,9-Trimethyl-3-pentyl-6a,7,8,10a-tetrahydro-6H-benzo[c]chromen-1-ol], the skin permeability in series [2] was 20 µg.
